In patent US20210255193A1, “LYSINE REACTIVE PROBES AND USES THEREOF” (The Scripps Research Institute, priority 2017, published 2021):
Each block holds one compound with its values, some of them ahead of it.

What was measured:
Assay in all cases: competitive isoTOP-ABPP
Type in all cases: binding
[1] = target: T1, EIF3G Eukaryotic translation initiation factor 3 subunit (Homo sapiens, UniProt O75821); settings: for R value (DMSO/fragment) for probe 1 labeling: O75821_K280; for R value (DMSO/fragment) for probe 1 labeling / isoTOP-ABPP reactivity ratio at lysine O75821_K280: 231 sol; for isoTOP-ABPP ratio, lysine O75821_K280: 50 uM_231_sol_in vitro
T1 construct: isoTOP-ABPP experiments performed in cell lysates (in vitro); endogenous in cells; host or cells: MDA-MB-231 soluble lysate
In short: (§1)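 Lysine engagement is reported as R, the MS1 peak-area ratio of heavy-tagged DMSO to light-tagged compound samples. Final fragment concentrations were 50 μM for activated esters and 100 μM for guanidinylating agents; STP-alkyne probe 0.1 mM, 1 h.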

[2] = target: T2, MTHFD1 C-1-tetrahydrofolate synthase, cytoplasmic (Homo sapiens, UniProt P11586); settings: for isoTOP-ABPP ratio (R) at liganded lysine P11586_K760 / isoTOP-ABPP reactivity ratio at lysine P11586_K760: 50 uM, in vitro; for isoTOP-ABPP ratio (R) at liganded lysine P11586_K760: sol, 231; for isoTOP-ABPP reactivity ratio at lysine P11586_K760: 231 sol
T2 construct: isoTOP-ABPP experiments performed in cell lysates (in vitro); endogenous in cells; host or cells: MDA-MB-231 soluble lysate
T2 sequence (P11586 1-935): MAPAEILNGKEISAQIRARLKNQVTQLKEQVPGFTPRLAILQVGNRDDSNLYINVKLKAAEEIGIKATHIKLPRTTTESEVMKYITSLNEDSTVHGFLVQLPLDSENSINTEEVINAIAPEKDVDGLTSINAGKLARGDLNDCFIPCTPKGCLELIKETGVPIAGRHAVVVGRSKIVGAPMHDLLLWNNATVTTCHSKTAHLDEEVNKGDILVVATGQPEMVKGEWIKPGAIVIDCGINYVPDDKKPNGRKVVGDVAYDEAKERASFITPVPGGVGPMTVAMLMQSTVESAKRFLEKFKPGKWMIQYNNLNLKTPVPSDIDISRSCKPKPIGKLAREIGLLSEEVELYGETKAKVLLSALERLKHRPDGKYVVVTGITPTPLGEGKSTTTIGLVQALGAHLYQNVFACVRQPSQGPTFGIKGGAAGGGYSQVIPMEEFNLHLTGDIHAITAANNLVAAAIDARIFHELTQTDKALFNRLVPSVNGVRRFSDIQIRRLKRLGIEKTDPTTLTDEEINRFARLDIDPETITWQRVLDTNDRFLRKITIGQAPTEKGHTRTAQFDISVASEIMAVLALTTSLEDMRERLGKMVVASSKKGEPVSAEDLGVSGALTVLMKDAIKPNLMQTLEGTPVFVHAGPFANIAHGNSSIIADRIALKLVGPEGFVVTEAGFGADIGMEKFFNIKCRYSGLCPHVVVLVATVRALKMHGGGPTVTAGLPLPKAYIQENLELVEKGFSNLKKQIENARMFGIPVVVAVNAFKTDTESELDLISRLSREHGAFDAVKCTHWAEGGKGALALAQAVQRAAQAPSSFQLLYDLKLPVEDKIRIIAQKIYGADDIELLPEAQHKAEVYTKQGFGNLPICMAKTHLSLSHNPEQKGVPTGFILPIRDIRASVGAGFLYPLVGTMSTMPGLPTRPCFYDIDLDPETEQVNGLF
In short: as §1

[3] = target: T3, PTRF Polymerase I and transcript release factor (Homo sapiens, UniProt Q6NZI2); settings: for isoTOP-ABPP ratio (R) at liganded lysine Q6NZI2_K326: sol, 231
T3 construct: isoTOP-ABPP experiments performed in cell lysates (in vitro); endogenous in cells; host or cells: soluble proteome of human cancer cell lines (MDA-MB-231; Ramos and Jurkat also prepared)
T3 sequence (Q6NZI2 1-390): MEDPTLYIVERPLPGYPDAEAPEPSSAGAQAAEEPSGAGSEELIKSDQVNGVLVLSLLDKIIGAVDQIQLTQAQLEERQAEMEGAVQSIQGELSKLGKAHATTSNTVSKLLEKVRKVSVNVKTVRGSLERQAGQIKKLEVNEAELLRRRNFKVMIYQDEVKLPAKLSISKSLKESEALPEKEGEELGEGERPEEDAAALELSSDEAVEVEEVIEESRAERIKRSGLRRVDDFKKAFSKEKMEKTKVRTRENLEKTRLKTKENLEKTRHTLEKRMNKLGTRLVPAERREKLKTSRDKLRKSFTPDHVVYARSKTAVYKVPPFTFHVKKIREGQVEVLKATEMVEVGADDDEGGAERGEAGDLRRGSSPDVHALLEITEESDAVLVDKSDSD
In short: as §1

T1 sequence (O75821 whole entry, the tested form may be a part): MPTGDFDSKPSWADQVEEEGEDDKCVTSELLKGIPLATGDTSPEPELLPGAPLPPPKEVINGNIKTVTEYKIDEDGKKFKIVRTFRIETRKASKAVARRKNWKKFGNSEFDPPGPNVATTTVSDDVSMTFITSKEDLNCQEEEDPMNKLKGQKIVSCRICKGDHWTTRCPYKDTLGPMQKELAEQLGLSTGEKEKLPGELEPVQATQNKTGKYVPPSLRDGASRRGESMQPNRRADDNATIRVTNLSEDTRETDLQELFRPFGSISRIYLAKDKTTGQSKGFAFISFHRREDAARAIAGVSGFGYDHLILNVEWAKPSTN

R value (DMSO/fragment) for probe 1 labeling ([1]; 50 uM, in vitro): 1.7
SMILES: O=C(Oc1c(F)c(F)c(F)c(F)c1F)c1cc(C(F)(F)F)cc(C(F)(F)F)c1 [fragment 21, Pentafluorophenyl 3,5-bis(trifluoromethyl)benzoate]

SMILES: CC(C)(C)OC(=O)NCCCC(=O)Oc1ccc([N+](=O)[O-])cc1[N+](=O)[O-] [fragment 41, 2,4-Dinitrophenyl 4-((tert-butoxycarbonyl)amino)butanoate]
isoTOP-ABPP ratio (R) at liganded lysine P11586_K760 [2]: 4.2

SMILES: O=C(CCc1cn(-c2ccccc2)nc1-c1ccccc1)Oc1ccc([N+](=O)[O-])cc1[N+](=O)[O-] [fragment 29, 2,4-Dinitrophenyl 3-(1,3-diphenyl-1H-pyrazol-4-yl)propanoate]
isoTOP-ABPP reactivity ratio at lysine O75821_K280 ([1]; 50 uM, in vitro): 5.3 | isoTOP-ABPP reactivity ratio at lysine Q6NZI2_K326 ([3]; 50 uM, 231 sol, in vitro): 20.0

SMILES: Cn1cc(CC(=O)Oc2ccc([N+](=O)[O-])cc2[N+](=O)[O-])c2ccccc21 [fragment 32, 2,4-Dinitrophenyl 2-(1-methyl-1H-indol-3-yl)acetate]
isoTOP-ABPP reactivity ratio at lysine P11586_K760 [2]: 0.6

SMILES: O=C(CCc1ccc2c(c1)OCO2)Oc1ccc([N+](=O)[O-])cc1[N+](=O)[O-] [fragment 45, 2,4-Dinitrophenyl 3-(benzo[d][1,3]dioxol-5-yl)propanoate]
isoTOP-ABPP ratio, lysine O75821_K280 [1]: 0.9 | isoTOP-ABPP ratio, lysine Q6NZI2_K326 ([3]; 50 uM_231_sol_in vitro): 0.9

SMILES: O=C(CC12CC3CC(CC(C3)C1)C2)Oc1ccc([N+](=O)[O-])cc1[N+](=O)[O-] [fragment 38, 2,4-Dinitrophenyl 2-(adamantan-1-yl)acetate]
isoTOP-ABPP ratio (R) at liganded lysine P11586_K760 [2]: 1.3

R value (DMSO/fragment) for probe 1 labeling ([1]; 50 uM, in vitro): 0.6 | R value (DMSO/fragment) for probe 1 labeling ([3]; Q6NZI2_K326, 50 uM, 231 sol, in vitro): 20.0
SMILES: Cn1cc(CC(=O)Oc2c(F)c(F)c(F)c(F)c2F)c2ccccc21 [fragment 22, Pentafluorophenyl 2-(1-methyl-1H-indol-3-yl)acetate]

SMILES: O=C(Oc1ccc([N+](=O)[O-])cc1[N+](=O)[O-])c1ccc2ccccc2n1 [fragment 35, 2,4-Dinitrophenyl quinoline-2-carboxylate]
isoTOP-ABPP ratio (R) at liganded lysine O75821_K280 ([1]; 50 uM, in vitro, sol, 231): 1.0

R value (DMSO/fragment) for probe 1 labeling ([1]; 50 uM, in vitro): 0.9
SMILES: O=C(Oc1c(F)c(F)c(F)c(F)c1F)C(c1ccccc1)c1ccccc1 [fragment 20, Pentafluorophenyl 2,2-diphenylacetate]

SMILES: O=C(Oc1ccc([N+](=O)[O-])cc1[N+](=O)[O-])c1cc(C(F)(F)F)cc(C(F)(F)F)c1 [fragment 31, 2,4-Dinitrophenyl 3,5-bis(trifluoromethyl)benzoate]
isoTOP-ABPP reactivity ratio at lysine P11586_K760 [2]: 0.8

isoTOP-ABPP ratio, lysine P11586_K760 ([2]; 100 uM_231_sol_in vitro): 0.6
SMILES: CC(C)(C)OC(=O)N=C(NC(=O)OC(C)(C)C)n1cccn1 [fragment 50, reference compound]

SMILES: O=C(Oc1ccc([N+](=O)[O-])cc1[N+](=O)[O-])c1ccccc1Nc1cccc(C(F)(F)F)c1 [fragment 40, 2,4-Dinitrophenyl 2-((3-(trifluoromethyl)phenyl)amino)benzoate]
isoTOP-ABPP ratio (R) at liganded lysine Q6NZI2_K326 ([3]; 50 uM, in vitro): 20.0

SMILES: N#Cc1ccc(C(=O)Oc2ccc([N+](=O)[O-])cc2[N+](=O)[O-])cc1 [fragment 44, 2,4-Dinitrophenyl 4-cyanobenzoate]
isoTOP-ABPP ratio, lysine O75821_K280 [1]: 0.9

SMILES: O=C(Oc1ccc([N+](=O)[O-])cc1[N+](=O)[O-])C(c1ccccc1)c1ccccc1 [fragment 30, 2,4-Dinitrophenyl 2,2-diphenylacetate]
isoTOP-ABPP reactivity ratio at lysine O75821_K280 ([1]; 50 uM, in vitro): 1.0 | isoTOP-ABPP reactivity ratio at lysine P11586_K760 [2]: 0.9

SMILES: O=C(ON1C(=O)CCC1=O)c1cc(C(F)(F)F)cc(C(F)(F)F)c1 [fragment 46, 3,5-Bis(trifluoromethyl)benzoic acid NHS ester]
isoTOP-ABPP ratio, lysine O75821_K280 [1]: 0.8

SMILES: O=C(Oc1ccc([N+](=O)[O-])cc1[N+](=O)[O-])c1ccc(Oc2ccccc2)cc1 [fragment 39, 2,4-Dinitrophenyl 4-phenoxybenzoate]
isoTOP-ABPP ratio (R) at liganded lysine Q6NZI2_K326 ([3]; 50 uM, in vitro): 0.8

SMILES: O=C(Oc1ccc([N+](=O)[O-])cc1[N+](=O)[O-])c1ccc(-c2ccccc2)cc1 [fragment 37, 2,4-Dinitrophenyl [1,1′-biphenyl]-4-carboxylate]
isoTOP-ABPP ratio (R) at liganded lysine Q6NZI2_K326 ([3]; 50 uM, in vitro): 20.0
